Experimental data: the NIST ThermoML archive (doi:10.1016/j.jct.2012.11.002)

Details: Liquid, Vibrating tube method

COC(=O)C(C)O (stereo not given) [methyl 2-hydroxypropanoate]
mass density [kg/m3]
Details | 100 kPa | 2500 kPa | 5000 kPa | 7500 kPa | 10000 kPa | 20000 kPa | 30000 kPa | 40000 kPa | 50000 kPa | 60000 kPa
283.15 K | 1104.41 | 1106 | 1107.57 | 1109.14 | 1110.68 | 1116.59 | 1122.23 | 1127.45 | 1132.48 | 1137.4
288.15 K | 1098.86 | 1100.48 | 1102.13 | 1103.77 | 1105.31 | 1111.55 | 1117.27 | 1122.78 | 1127.98 | 1132.78
293.15 K | 1093.31 | 1094.99 | 1096.72 | 1098.35 | 1099.92 | 1106.2 | 1112.08 | 1117.65 | 1122.93 | 1128.01
298.15 K | 1087.76 | 1089.42 | 1091.21 | 1092.88 | 1094.57 | 1101.03 | 1107.23 | 1112.83 | 1118.24 | 1123.43
303.15 K | 1082.13 | 1083.92 | 1085.75 | 1087.5 | 1089.23 | 1095.82 | 1101.97 | 1107.9 | 1113.44 | 1118.66
308.15 K | 1076.53 | 1078.32 | 1080.19 | 1082 | 1083.79 | 1090.68 | 1097.03 | 1102.99 | 1108.63 | 1114.02
313.15 K | 1070.85 | 1072.76 | 1074.65 | 1076.52 | 1078.39 | 1085.28 | 1091.84 | 1097.99 | 1103.74 | 1109.24
318.15 K | 1065.11 | 1067.04 | 1068.97 | 1070.94 | 1072.77 | 1080.09 | 1086.77 | 1093.08 | 1098.93 | 1104.49
323.15 K | 1059.39 | 1061.4 | 1063.43 | 1065.44 | 1067.34 | 1074.67 | 1081.41 | 1088 | 1094.04 | 1099.76
328.15 K | 1053.63 | 1055.7 | 1057.77 | 1059.74 | 1061.8 | 1069.41 | 1076.5 | 1083.15 | 1089.4 | 1095.07
333.15 K | 1047.83 | 1049.97 | 1052.16 | 1054.23 | 1056.23 | 1064.05 | 1071.33 | 1078.01 | 1084.39 | 1090.37
338.15 K | 1042 | 1044.15 | 1046.35 | 1048.52 | 1050.63 | 1058.63 | 1066.13 | 1073.12 | 1079.74 | 1085.76
